± gives the uncertainty stated by the source.
Assay: xn = mol fraction of the nth substance listed

C1CCCCCCC1 + Cc1ccccc1
303 K, 101 kPa
Conditions | viscosity [mPa·s]
x2 = 0.0411 | 1.726 ± 0.013
x2 = 0.1605 | 1.259 ± 0.0098
x2 = 0.3113 | 1.024 ± 0.0081
x2 = 0.4874 | 0.8342 ± 0.0067
x2 = 0.6192 | 0.7126 ± 0.0058
x2 = 0.7463 | 0.627 ± 0.0052
x2 = 0.8614 | 0.5716 ± 0.0048
x2 = 0.9174 | 0.5484 ± 0.0046
x2 = 0.973 | 0.5311 ± 0.0045

OC1CCCCC1 + Cc1ccccc1Cl
303.15 K, 101 kPa
Conditions | viscosity [mPa·s]
x1 = 0.1104 | 4.861 ± 0.58
x1 = 0.2183 | 8.854 ± 1.1
x1 = 0.3237 | 12.93 ± 1.6
x1 = 0.4268 | 17.06 ± 2.1
x1 = 0.5276 | 21.22 ± 2.6
x1 = 0.6262 | 25.36 ± 3.1
x1 = 0.7227 | 29.4 ± 3.6
x1 = 0.8171 | 33.34 ± 4
x1 = 0.9095 | 37.22 ± 4.5

C1CCCCCCC1 + Clc1ccccc1
viscosity [mPa·s], 101 kPa
Conditions | x1 = 0.1213 | x1 = 0.2071 | x1 = 0.3009 | x1 = 0.3941 | x1 = 0.5112 | x1 = 0.5915 | x1 = 0.6905 | x1 = 0.799 | x1 = 0.9125
308.15 K | 0.7246 ± 0.024 | 0.7681 ± 0.026 | 0.8486 ± 0.028 | 0.9205 ± 0.03 | 1.014 ± 0.032 | 1.079 ± 0.034 | 1.159 ± 0.037 | 1.297 ± 0.04 | 1.544 ± 0.047
313.15 K | 0.6673 ± 0.023 | 0.7011 ± 0.024 | 0.7511 ± 0.025 | 0.8196 ± 0.027 | 0.9056 ± 0.03 | 0.951 ± 0.031 | 1.042 ± 0.033 | 1.197 ± 0.037 | 1.402 ± 0.043

CCN(CC)CCO + NCCO
Conditions | viscosity [mPa·s]
293.15 K, 101 kPa, x2 = 0.9 | 22.75 ± 4.6

CC(=O)O.NCCO + O
viscosity [mPa·s], 101 kPa
Conditions | x1 = 0.0075 | x1 = 0.0163 | x2 = 0.8718 | x2 = 0.9099 | x2 = 0.9403 | x2 = 0.9641 | x2 = 0.9743
293.15 K | 1.308 ± 0.064 | 1.512 ± 0.073 | 7.458 ± 0.39 | 4.47 ± 0.27 | 2.88 ± 0.16 | 2.01 ± 0.1 | 1.71 ± 0.087
298.15 K | 1.17 ± 0.057 | 1.344 ± 0.065 | 6.312 ± 0.33 | 3.84 ± 0.2 | 2.513 ± 0.13 | 1.788 ± 0.089 | 1.512 ± 0.075
303.15 K | 1.05 ± 0.053 | 1.218 ± 0.059 | 5.448 ± 0.29 | 3.354 ± 0.15 | 2.232 ± 0.1 | 1.584 ± 0.079 | 1.35 ± 0.064

CCCCCCCCCCCCCC[P+](CCCCCC)(CCCCCC)CCCCCC.c1ccc2[n-]nnc2c1 + O
Conditions | viscosity [mPa·s]
298.15 K, 100 kPa, x2 = 0.728 | 181 ± 6

CCC[NH2+]CCO.O=C([O-])c1ccccc1O + O
100 kPa, x2 = 0.14
Conditions | viscosity [mPa·s]
298 K | 376.1 ± 16
303 K | 261.8 ± 11
313 K | 136.8 ± 5
323 K | 78.08 ± 2.7

CCN(CC)CCO + O
Conditions | viscosity [mPa·s]
293.15 K, 101 kPa, x1 = 0.062 | 4.536 ± 0.025
298.15 K, 101 kPa, x1 = 0.062 | 3.689 ± 0.023
298.15 K, 101.33 kPa, x1 = 0.0039 | 0.991 ± 0.025
298.15 K, 101.33 kPa, x1 = 0.008 | 1.104 ± 0.028
298.15 K, 101.33 kPa, x1 = 0.0121 | 1.233 ± 0.03
298.15 K, 101.33 kPa, x1 = 0.0169 | 1.4 ± 0.034
298.15 K, 101.33 kPa, x1 = 0.0261 | 1.752 ± 0.042
298.15 K, 101.33 kPa, x1 = 0.0372 | 2.242 ± 0.053
298.15 K, 101.33 kPa, x1 = 0.0602 | 3.439 ± 0.079
298.15 K, 101.33 kPa, x1 = 0.0909 | 5.404 ± 0.12
298.15 K, 101.33 kPa, x1 = 0.1326 | 8.287 ± 0.17
298.15 K, 101.33 kPa, x1 = 0.1883 | 11.72 ± 0.22
298.15 K, 101.33 kPa, x1 = 0.3136 | 15.25 ± 0.28
298.15 K, 101.33 kPa, x1 = 0.4547 | 14.14 ± 0.26
298.15 K, 101.33 kPa, x1 = 0.5001 | 13.45 ± 0.23
298.15 K, 101.33 kPa, x1 = 0.6638 | 9.491 ± 0.18
298.15 K, 101.33 kPa, x1 = 0.758 | 6.903 ± 0.14
298.15 K, 101.33 kPa, x1 = 0.8765 | 5.478 ± 0.12
298.15 K, 101.33 kPa, x1 = 0.9544 | 4.484 ± 0.1
303.15 K, 100 kPa, x1 = 0.06181 | 3 ± 0.06
303.15 K, 100 kPa, x1 = 0.09296 | 4.51 ± 0.09
303.15 K, 101 kPa, x1 = 0.02641 | 1.53 ± 0.03
303.15 K, 101 kPa, x1 = 0.062 | 3.048 ± 0.021
303.15 K, 101 kPa, x1 = 0.1117 | 5.23 ± 0.11
303.15 K, 101.33 kPa, x1 = 0.0039 | 0.885 ± 0.023
303.15 K, 101.33 kPa, x1 = 0.008 | 0.98 ± 0.025
303.15 K, 101.33 kPa, x1 = 0.0121 | 1.085 ± 0.027
303.15 K, 101.33 kPa, x1 = 0.0169 | 1.219 ± 0.03
303.15 K, 101.33 kPa, x1 = 0.0261 | 1.495 ± 0.036
303.15 K, 101.33 kPa, x1 = 0.0372 | 1.887 ± 0.045
303.15 K, 101.33 kPa, x1 = 0.0602 | 2.82 ± 0.065
303.15 K, 101.33 kPa, x1 = 0.0909 | 4.364 ± 0.098
303.15 K, 101.33 kPa, x1 = 0.1326 | 6.361 ± 0.13
303.15 K, 101.33 kPa, x1 = 0.1883 | 8.984 ± 0.18
303.15 K, 101.33 kPa, x1 = 0.3789 | 11.36 ± 0.22
303.15 K, 101.33 kPa, x1 = 0.5883 | 8.745 ± 0.17
303.15 K, 101.33 kPa, x1 = 0.6638 | 7.615 ± 0.15
303.15 K, 101.33 kPa, x1 = 0.758 | 5.577 ± 0.12
303.15 K, 101.33 kPa, x1 = 0.8765 | 4.459 ± 0.1
303.15 K, 101.33 kPa, x1 = 0.9544 | 3.65 ± 0.083
308.15 K, 101 kPa, x1 = 0.062 | 2.552 ± 0.02
313.15 K, 100 kPa, x1 = 0.06181 | 2.13 ± 0.04
313.15 K, 100 kPa, x1 = 0.09296 | 3.08 ± 0.06
313.15 K, 101 kPa, x1 = 0.02641 | 1.18 ± 0.03
313.15 K, 101 kPa, x1 = 0.06181 | 2.07 ± 0.04
313.15 K, 101 kPa, x1 = 0.062 | 2.165 ± 0.019
313.15 K, 101 kPa, x1 = 0.1117 | 3.5 ± 0.07
313.15 K, 101.33 kPa, x1 = 0.0039 | 0.723 ± 0.019
313.15 K, 101.33 kPa, x1 = 0.008 | 0.791 ± 0.021
313.15 K, 101.33 kPa, x1 = 0.0121 | 0.866 ± 0.022
313.15 K, 101.33 kPa, x1 = 0.0169 | 0.958 ± 0.024
313.15 K, 101.33 kPa, x1 = 0.0261 | 1.149 ± 0.028
313.15 K, 101.33 kPa, x1 = 0.0372 | 1.412 ± 0.034
313.15 K, 101.33 kPa, x1 = 0.0602 | 2.016 ± 0.048
313.15 K, 101.33 kPa, x1 = 0.0909 | 2.912 ± 0.067
313.15 K, 101.33 kPa, x1 = 0.1326 | 4.179 ± 0.094
313.15 K, 101.33 kPa, x1 = 0.1883 | 5.497 ± 0.12
313.15 K, 101.33 kPa, x1 = 0.2629 | 6.627 ± 0.14
313.15 K, 101.33 kPa, x1 = 0.3136 | 7.004 ± 0.14
313.15 K, 101.33 kPa, x1 = 0.3789 | 7.054 ± 0.14
313.15 K, 101.33 kPa, x1 = 0.4547 | 6.685 ± 0.14
313.15 K, 101.33 kPa, x1 = 0.6638 | 4.668 ± 0.11
313.15 K, 101.33 kPa, x1 = 0.758 | 3.694 ± 0.084
313.15 K, 101.33 kPa, x1 = 0.8765 | 3.059 ± 0.07
313.15 K, 101.33 kPa, x1 = 0.9544 | 2.639 ± 0.061
318.15 K, 101 kPa, x1 = 0.062 | 1.86 ± 0.019
323.15 K, 100 kPa, x1 = 0.06181 | 1.6 ± 0.03
323.15 K, 101 kPa, x1 = 0.02641 | 0.93 ± 0.02
323.15 K, 101 kPa, x1 = 0.06181 | 1.55 ± 0.03
323.15 K, 101 kPa, x1 = 0.062 | 1.617 ± 0.018
323.15 K, 101 kPa, x1 = 0.1117 | 2.51 ± 0.05

CC[C@@H](CO)NCCN[C@@H](CC)CO.Cl.Cl + O
298.15 K, 100 kPa
Conditions | viscosity [mPa·s]
x1 = 9.47e-06 | 0.8977 ± 0.019
x1 = 1.925e-05 | 0.8983 ± 0.019
x1 = 3.721e-05 | 0.8987 ± 0.019
x1 = 9.087e-05 | 0.9011 ± 0.019
x1 = 0.0001804 | 0.9029 ± 0.019
x1 = 0.000898 | 0.9213 ± 0.019
x1 = 0.001796 | 0.9443 ± 0.02

NCCCC[C@H](N)C(=O)O + O
viscosity [mPa·s], 101 kPa
Conditions | 293.15 K | 298.15 K | 303.15 K | 308.15 K | 313.15 K
x1 = 0.006 | 1.261 ± 0.12 | 1.129 ± 0.12 | 1.016 ± 0.12 | 0.9447 ± 0.12 | 0.8984 ± 0.12
x1 = 0.014 | 1.324 ± 0.12 | 1.194 ± 0.12 | 1.079 ± 0.12 | 1.013 ± 0.12 | 0.9598 ± 0.12
